PMC12476453, “Chemosensation of the pheromone spermine by the olfactory TAAR-like receptor TAAR348” (Cell Discovery, 2025)

Biological target: T1, TAAR348 (Petromyzon marinus, UniProt A0A678XLR1)
T1 construct: TAAR-like GPCR overexpressed in HEK293 cells with Gs BRET2 sensors; cryo-EM complex with Gs (Gαs, Gβ, Gγ), NB35 and ScFv16; construct details only in supplement
T1 sequence (A0A678XLR1 1-348): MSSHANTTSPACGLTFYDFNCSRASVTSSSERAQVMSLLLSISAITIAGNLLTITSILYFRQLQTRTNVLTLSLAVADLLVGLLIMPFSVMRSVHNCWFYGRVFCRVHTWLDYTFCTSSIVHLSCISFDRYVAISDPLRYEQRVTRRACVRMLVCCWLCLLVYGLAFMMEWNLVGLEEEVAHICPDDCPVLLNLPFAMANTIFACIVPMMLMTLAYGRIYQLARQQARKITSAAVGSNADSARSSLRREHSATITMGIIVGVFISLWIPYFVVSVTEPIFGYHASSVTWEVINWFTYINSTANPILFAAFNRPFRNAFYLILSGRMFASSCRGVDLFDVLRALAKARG
Experiment: BRET2 G protein trimer dissociation assay (Gs)
Type: cell-based

In the case of `NCCCNCCCCNCCCN` [spermine], the EC50 is reported as 155 ± 6.9 nM.
